Measured values reported in ChEMBL document CHEMBL5584239, “Discovery of novel quinoline scaffold selective estrogen receptor degraders (SERDs) for treatment of ER positive breast cancer with enhanced antiproliferative bioactivity through immunogenic cell death (ICD) effects” (Eur J Med Chem, 2024).
Active and inactive are the calls of the source. No cut-off for these calls is given here.

Assays:
MCF7 [1] = experiment: Induction of ROS production in human MCF7 cells incubated for 3 to 24 hrs by immunofluorescence analysis; format: functional, cell-based; conditions: time 3-24 hrs
Ishikawa = experiment: Antiproliferative activity against human Ishikawa cells at 20 uM incubated for 3 days by MTT assay relative to control; format: functional; conditions: 72 h, time 3 day
MCF7 [2] = experiment: Antiproliferative activity against human MCF7 cells incubated for 5 days by MTT assay; format: functional, cell-based; conditions: MCF7, 120 h
MCF7 [3] = experiment: Induction of cell cycle arrest at G0/G1 phase in human MCF7 cells at 10 uM incubated for 24 hrs by PI/RNase staining based flow cytometry (reference value: 53.5 +/- 1.96 %); format: functional

| SMILES | Activity (MCF7 [1]) | inhibition at 20 µM (Ishikawa) [%] | IC50 (MCF7 [2]) [µM] | Activity (MCF7 [3]) [%] |
| --- | --- | --- | --- | --- |
| C[C@]12CC[C@@H]3c4ccc(O)cc4CC[C@H]3[C@@H]1CC[C@@H]2O | inactive | – | – | – |
| O=C(O)/C=C/c1ccc(Oc2c(C(=O)c3ccccc3)cnc3cc(O)ccc23)cc1 | – | 11.8 | 1.67 | – |
| Cc1cc(Cl)ccc1C(=O)c1cnc2cc(O)ccc2c1Oc1ccc(/C=C/C(=O)O)cc1 | – | 24.9 | 0.37 | – |
| CCc1ccccc1C(=O)c1cnc2cc(O)ccc2c1Oc1ccc(/C=C/C(=O)O)cc1OC | – | 5.03 | 14.1 | – |
| O=C(O)/C=C/c1ccc(Oc2c(C(=O)c3ccc(F)cc3)cnc3cc(O)ccc23)cc1 | – | 12.5 | 4.87 | – |
| Cc1cc(C)cc(C(=O)c2cnc3cc(O)ccc3c2Oc2ccc(/C=C/C(=O)O)cc2)c1 | – | 30.9 | 4.8 | – |
| Cc1cc(F)ccc1C(=O)c1cnc2cc(O)ccc2c1Oc1ccc(/C=C/C(=O)O)cc1 | – | 15.1 | 0.42 | – |
| CC/C(=C(\c1ccccc1)c1ccc(OCCN(C)C)cc1)c1ccccc1 [TAMOXIFEN] | inactive | 86.5 | 1.56 | 67.6 |
| CC(C)c1ccccc1C(=O)c1cnc2cc(O)ccc2c1Oc1ccc(/C=C/C(=O)O)cc1 | – | 23.8 | 0.58 | – |
| CCc1ccccc1C(=O)c1cnc2cc(O)ccc2c1Oc1cc(C)c(/C=C/C(=O)O)c(C)c1 | – | 17.3 | 0.59 | – |
| CCc1ccccc1C(=O)c1cnc2cc(O)ccc2c1Oc1ccc(/C=C/C(=O)O)c(C)c1 | – | 13.4 | 3.57 | – |
| O=C(O)/C=C/c1ccc(Oc2c(C(=O)c3ccc(OC(F)(F)F)cc3)cnc3cc(O)ccc23)cc1 | – | 20.4 | 1.36 | – |
